# Laboratory results from patent US20100216736A2, “2'-CYANOPYRIMIDINE NUCLEOSIDE COMPOUND” (Taiho Pharmaceutical Co., Ltd., priority 2006, published 2010).
# Key:
# [1] = test system: Human colon cancer strain KM20C; assay: Antitumor test using tumor-subcutaneously-implanted nude mouse system upon oral administration (equimolar dose); assay type: in vivo, BALB/cA Jcl-nu mouse; conditions: once per day for 14 days, dose equimolar to 18 mg of CNDAC/kg of body weight per day, evaluated on the 29th day after grouping, vs untreated group
# Description: Antitumor Test using Tumor-Subcutaneously-Implanted Nude Mouse System Upon Oral Administration
# (§1) Human colon cancer strain KM20C subcutaneously subcultured in a BALB/cA Jcl-nu mouse (product of Clea Japan Inc.) was prepared into fragments of 2 mm×2 mm, and subcutaneously implanted into the backs of 6-week-old BALB/cA Jcl-nu mice. When the average tumor volume exceeded 100 mm^3, the length of each tumor was measured along the major axis and minor axis, and the tumor volume was calculated using the following equation. The mice were then divided into several groups to reduce variations in tumor volume among the groups (5 or 6 mice per group). Vt=½(Vl)×(Vs)^2, (Equation 1)
# wherein Vt represents a tumor volume, Vl represents the length along the tumor major axis, and Vs represents the length along the tumor minor axis.
# Test compounds were each dissolved or suspended in a 0.5% hydroxypropylmethylcellulose solution prepared with 100 mM citrate buffer (pH 5.0), and, from the day after the day of grouping, orally administered to the mice once per day for 14 days. The dose was set to be equimolar to 18 mg of CNDAC/kg of body weight per day.
# On the 29th day after the day of grouping, with respect to the mice in each group, the longest diameter and shortest diameter of each of the subcutaneously implanted tumors were measured. The relative tumor volume (RTV) and the tumor growth inhibition rate (1R) were calculated using the following equation to evaluate antitumor effects. RTV=Vt1/Vt2, (Equation 2)
# wherein RTV represents a relative tumor volume, Vt1 represents the tumor volume on the day of evaluation, and Vt2 represents the tumor volume on the day of grouping. IR(%)=[1−(RTVtest)/(RTVcont)]×100, (Equation 3)
# wherein IR represents a tumor growth inhibition rate, RTVtest represents the average RTV value in a drug administration group, and RTVcont represents the average RTV value in an untreated group.
# [2] = test system: Human colon cancer strain KM20C; assay: Antitumor test using tumor-subcutaneously-implanted nude mouse system upon oral administration at an equitoxic dose; assay type: in vivo, BALB/cA Jcl-nu mouse; conditions: once per day for 14 days; for tumor course after completion of administration (regrowth): 20th to 25th day after grouping (about 1 week after completion of administration)
# Description: Antitumor Test of CNDAC, P-CNDAC, and Compounds 1 and 11 of the Present Invention using Tumor-Subcutaneously-Implanted Nude Mouse System Upon Oral Administration at an Equitoxic Dose.
# as §1, with “On” for “When”, “15th day after the day of implantation,” for “average tumor volume exceeded 100 mm^3,”, “Vt=1/2(Vl)×(Vs)2” for “Vt=½(Vl)×(Vs)^2,”, “5) wherein Vt represents a tumor volume, Vl represents the length along the tumor major axis, and Vs represents the length along the tumor minor axis.” for “1)”
# CNDAC, P-CNDAC, and Compounds 1 and 11 were each dissolved or suspended in a 0.5% hydroxypropylmethylcellulose solution prepared with 100 mM citrate buffer (pH 5.0), and, from the day after the day of grouping, orally administered at an equitoxic dose once per day for 14 days.
# With respect to the mice in each group, the length of each of the subcutaneously implanted tumors was measured along the major axis and minor axis twice a week. RTV was calculated as a reference of tumor growth using the following equation to evaluate antitumor effects. RTV=Vt1/Vt2, (Equation 6)
# wherein RTV represents a relative tumor volume, Vt1 represents the tumor volume on the day of evaluation, and Vt2 represents the tumor volume on the day of grouping.
# [3] = Measurement of water solubility; conditions: for solubility at 75 min: water, 37 °C, thermodynamic from solid
# Description: Measurement of Water Solubility
# Test compounds (2 mg or more) were each suspended in water (1 ml), then sonicated for 10 seconds, and incubated at 37° C. for 75 minutes. After filtration through a membrane filter (Millex-LG, 0.2 μm, product of Millipore Corporation), 100 μl of the obtained filtrate was diluted with acetonitrile (100 μl), and analyzed using a high performance liquid chromatograph apparatus.
# The solubility of each test compound in water was calculated from the calibration curve.
# [4] = Pharmacokinetic testing in SD (IGS) rats, oral administration, CNDAC serum concentration; assay type: in vivo; conditions: 10 mg/kg of body weight, rat, dose equivalent to 10 mg of CNDAC/kg of body weight, 0 to 8 hours after administration
# Description: Pharmacokinetic Testing in SD (IGS) Rats
# Test compounds were orally administered to SD (IGS) rats (product of Charles River Laboratories Japan, Inc.; 8 weeks old), and, based on the CNDAC serum concentration in the rats, orally administered absorbability and in vivo activation into CNDAC were evaluated.
# In the morning of the test day, predetermined amounts of test compounds were each dissolved or suspended in a 0.5% hydroxypropylmethylcellulose solution prepared with 100 mM citrate buffer (pH 4.5), and orally administered. CNDAC was administered at a dose of 10 mg/kg of body weight, and other test compounds were administered at a dose equivalent to 10 mg of CNDAC/kg of body weight. Blood was collected from the jugular vein 0.5, 1, 2, 4, 6, and 8 hours after administration of the test compounds (two or three rats per point) to obtain serum. The serum concentrations of the compounds and CNDAC were measured using LC/MS, and the area under the curve (AUC) of the CNDAC serum concentration from 0 to 8 hours after administration were calculated.
melting point,solubility at 75 min [3] [µg/mL],SMILES,IR (%) tumor growth inhibition rate [1] [%],other results
113 °C,,"N#C[C@H]1[C@H](O)[C@@H](COC(=O)Oc2ccc(Cl)cc2)O[C@H]1n1ccc(N)nc1=O [Compound 17, 5′-O-(4-Chlorophenyloxycarbonyl)-2′-cyano-2′-deoxy-1-β-D-arabinofuranosylcytosine]",58,
72.4 °C,,"CC/C=C\CCCCCOC(=O)Nc1ccn([C@@H]2O[C@H](CO)[C@@H](O)[C@@H]2C#N)c(=O)n1 [Compound 3, 4-N—[(Z)-6-Nonen-1-yloxycarbonyl]-2′-cyano-2′-deoxy-1-β-D-arabinofuranosylcytosine]",,
72.7 °C,,"C=CCCCCCCCOC(=O)Nc1ccn([C@@H]2O[C@H](CO)[C@@H](O)[C@@H]2C#N)c(=O)n1 [Compound 6, 4-N-(8-Nonen-1-yloxycarbonyl)-2′-cyano-2′-deoxy-1-β-D-arabinofuranosylcytosine]",,
,,"CCCCCCCCCCCCCCCC(=O)Nc1ccn([C@@H]2O[C@H](CO)[C@@H](O)[C@@H]2C#N)c(=O)n1 [P-CNDAC, 4-N-palmitoyl-2′-cyano-2′-deoxy-1-β-D-arabinofuranosylcytosine, reference compound]",,"tumor disappearance [2]: tumors did not disappear; tumor course after completion of administration (regrowth) [2]: tumor regrowth was observed; water solubility, in words ([3]; in water, 37° C.): low water solubility; Water Solubility ([3]; in water, 37° C., 75 minutes, filtrate analysed by HPLC): <0.5 µg/mL"
66 °C,21.1,"CCCCCCCCCOC(=O)Nc1ccn([C@@H]2O[C@H](CO)[C@@H](O)[C@@H]2C#N)c(=O)n1 [Compound 1, 4-N-(n-Nonyloxycarbonyl)-2′-cyano-2′-deoxy-1-β-D-arabinofuranosylcytosine]",96,"reduction of tumor volume (RTV), FIG. 1 [2]: greater reduction of tumor volume than CNDAC and P-CNDAC; tumor disappearance [2]: tumor disappearance was achieved in one of the five cases; tumor course after completion of administration (regrowth) [2]: the tumor size continued to reduce even after completion of administration"
97 °C,,"CCCCCCCCCCOC(=O)Nc1ccn([C@@H]2O[C@H](CO)[C@@H](O)[C@@H]2C#N)c(=O)n1 [Compound 15, 4-N-(n-Decyloxycarbonyl)-2′-cyano-2′-deoxy-1-β-D-arabinofuranosylcytosine]",22,
83.6 °C,,"CCCCC(CCCC)OC(=O)Nc1ccn([C@@H]2O[C@H](CO)[C@@H](O)[C@@H]2C#N)c(=O)n1 [Compound 2, 4-N-(Nonan-5-yloxycarbonyl)-2′-cyano-2′-deoxy-1-β-D-arabinofuranosylcytosine]",,
,,"CCCCC/C=C\CCOC(=O)Nc1ccn([C@@H]2O[C@H](CO)[C@H](O)[C@@H]2C#N)c(=O)n1 [Compound 4, 4-N—[(Z)-3-Nonen-1-yloxycarbonyl]-2′-cyano-2′-deoxy-1-β-D-arabinofuranosylcytosine]",93,
154.1 °C,> 50,"CCCCCCOC(=O)OC[C@H]1O[C@@H](n2ccc(N)nc2=O)[C@@H](C#N)[C@@H]1O [Compound 8, 5′-O-(n-Hexyloxycarbonyl)-2′-cyano-2′-deoxy-1-β-D-arabinofuranosylcytosine]",76,
143.1 °C,> 50,"CCCCCCCCOC(=O)OC[C@H]1O[C@@H](n2ccc(N)nc2=O)[C@@H](C#N)[C@@H]1O [Compound 10, 5′-O-(n-Octyloxycarbonyl)-2′-cyano-2′-deoxy-1-β-D-arabinofuranosylcytosine]",89,
71.1 °C,,"CCCCCC/C=C/COC(=O)Nc1ccn([C@@H]2O[C@H](CO)[C@@H](O)[C@@H]2C#N)c(=O)n1 [Compound 5, 4-N—[(E)-2-Nonen-1-yloxycarbonyl]-2′-cyano-2′-deoxy-1-β-D-arabinofuranosylcytosine]",,
182.7 °C (dec.),,"CC(C)CC(CC(C)C)OC(=O)OC[C@H]1O[C@@H](n2ccc(N)nc2=O)[C@@H](C#N)[C@@H]1O [Compound 14, 5′-O-(2,6-Dimethylheptan-4-yloxycarbonyl)-2′-cyano-2′-deoxy-1-β-D-arabinofuranosylcytosine]",,
,> 50,"CCCCCC/C=C\COC(=O)Nc1ccn([C@@H]2O[C@H](CO)[C@@H](O)[C@@H]2C#N)c(=O)n1 [Compound 7, 4-N—[(Z)-2-Nonen-1-yloxycarbonyl]-2′-cyano-2′-deoxy-1-β-D-arabinofuranosylcytosine]",96,
167.2 °C,49.5,"CCCCC(CCCC)OC(=O)OC[C@H]1O[C@@H](n2ccc(N)nc2=O)[C@@H](C#N)[C@@H]1O [Compound 11, 5′-O-(Nonan-5-yloxycarbonyl)-2′-cyano-2′-deoxy-1-β-D-arabinofuranosylcytosine]",93,"reduction of tumor volume (RTV), FIG. 1 [2]: greater reduction of tumor volume than CNDAC and P-CNDAC; tumor course after completion of administration (regrowth) [2]: the tumor size continued to reduce even after completion of administration"
67.5 °C,,"CCCCCCCCOC(=O)Nc1ccn([C@@H]2O[C@H](CO)[C@@H](O)[C@@H]2C#N)c(=O)n1 [Compound 16, 4-N-(n-Octyloxycarbonyl)-2′-cyano-2′-deoxy-1-β-D-arabinofuranosylcytosine]",38,
,> 1000,"N#C[C@H]1[C@H](O)[C@@H](CO)O[C@H]1n1ccc(N)nc1=O [CNDAC, 2′-cyano-2′-deoxy-1-β-D-arabinofuranosylcytosine, reference compound]",54,"tumor disappearance [2]: tumors did not disappear; tumor course after completion of administration (regrowth) [2]: tumor regrowth was observed; water solubility, in words ([3]; in water, 37° C.): extremely high water solubility; AUC(0-t) [4]: 493 ng·h/mL"
152.2 °C,> 50,"CCCCCCCOC(=O)OC[C@H]1O[C@@H](n2ccc(N)nc2=O)[C@@H](C#N)[C@@H]1O [Compound 9, 5′-O-(n-Heptyloxycarbonyl)-2′-cyano-2′-deoxy-1-β-D-arabinofuranosylcytosine]",78,
